Source: PubChem BioAssay AID252 (DTP/NCI, 2004)
“And” between values parts separate entries of the source, which are not always exact repeats. Equal entries are not always repeated. Inconclusive results and toxic doses are left out. The calls were made as follows: active = survival T/C of 150% or more; inactive = T/C below 125% in these data.

Test system: BDF1 mice, intracerebral L1210 leukemia, survival T/C
Test: NCI In Vivo Anticancer Drug Screen. Data for tumor model L1210 Leukemia (intracerebral) in B6D2F1 (BDF1) mice
Conditions: higher = longer survival
Procedure, shortened: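 Tumour was transplanted, animals received compound or vehicle, then survival in each group was measured and treated divided by control.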

Measured: T/C

CNNCc1ccc(C(=O)NC(C)C)cc1
inactive: endpoint: mean survival time, dose: 25.0 mg/kg/injection, schedule: Q01DX009 (ip), vehicle: saline 105 % of control | endpoint: mean survival time, dose: 40.0 mg/kg/injection, schedule: Q01DX Z (ip), vehicle: saline 122 % of control | endpoint: mean survival time, dose: 50.0 mg/kg/injection, schedule: Q01DX009 (ip), vehicle: saline 108 % of control | endpoint: mean survival time, dose: 64.0 mg/kg/injection, schedule: Q01DX010 (oral), vehicle: clinical formulation 102 % of control | endpoint: median survival time, dose: 0.5 mg/kg/injection, schedule: Q01DX010 (ip), vehicle: clinical formulation 105 % of control | endpoint: median survival time, dose: 0.5 mg/kg/injection, schedule: Q01DX010 (ip), vehicle: saline 106 % of control | endpoint: median survival time, dose: 1.0 mg/kg/injection, schedule: Q01DX010 (ip), vehicle: clinical formulation 105 % of control | endpoint: median survival time, dose: 1.0 mg/kg/injection, schedule: Q01DX010 (ip), vehicle: saline 103 % of control | endpoint: median survival time, dose: 1.0 mg/kg/injection, schedule: Q01DX010 (oral), vehicle: clinical formulation 105 % of control | endpoint: median survival time, dose: 2.0 mg/kg/injection, schedule: Q01DX010 (ip), vehicle: clinical formulation 103 % of control | endpoint: median survival time, dose: 2.0 mg/kg/injection, schedule: Q01DX010 (ip), vehicle: saline 106 % of control | endpoint: median survival time, dose: 2.0 mg/kg/injection, schedule: Q01DX010 (oral), vehicle: clinical formulation 103 % of control | endpoint: median survival time, dose: 4.0 mg/kg/injection, schedule: Q01DX010 (ip), vehicle: clinical formulation 99 % of control | endpoint: median survival time, dose: 4.0 mg/kg/injection, schedule: Q01DX010 (ip), vehicle: saline 106 % of control | endpoint: median survival time, dose: 4.0 mg/kg/injection, schedule: Q01DX010 (oral), vehicle: clinical formulation 105 % of control | endpoint: median survival time, dose: 8.0 mg/kg/injection, schedule: Q01DX010 (ip), vehicle: clinical formulation 101 % of control | endpoint: median survival time, dose: 8.0 mg/kg/injection, schedule: Q01DX010 (ip), vehicle: saline 111 % of control | endpoint: median survival time, dose: 8.0 mg/kg/injection, schedule: Q01DX010 (oral), vehicle: clinical formulation 95 % of control | endpoint: median survival time, dose: 16.0 mg/kg/injection, schedule: Q01DX010 (ip), vehicle: clinical formulation 103 % of control | endpoint: median survival time, dose: 16.0 mg/kg/injection, schedule: Q01DX010 (ip), vehicle: saline 109 % of control | endpoint: median survival time, dose: 16.0 mg/kg/injection, schedule: Q01DX010 (oral), vehicle: clinical formulation 92 % of control | endpoint: median survival time, dose: 32.0 mg/kg/injection, schedule: Q01DX010 (ip), vehicle: clinical formulation 101 % of control | endpoint: median survival time, dose: 32.0 mg/kg/injection, schedule: Q01DX010 (ip), vehicle: saline 104 % of control | endpoint: median survival time, dose: 32.0 mg/kg/injection, schedule: Q01DX010 (oral), vehicle: clinical formulation 97 % of control | endpoint: median survival time, dose: 64.0 mg/kg/injection, schedule: Q01DX010 (oral), vehicle: clinical formulation 109 % of control | endpoint: median survival time, dose: 128.0 mg/kg/injection, schedule: Q01DX010 (oral), vehicle: clinical formulation 104 % of control
active: endpoint: mean survival time, dose: 160.0 mg/kg/injection, schedule: Q01DX Z (ip), vehicle: saline 155 % of control

O=NN(CCCl)C(=O)NC1CCSc2ccccc21 (stereo unspecified)
active: endpoint: mean survival time, dose: 26.0 mg/kg/injection, schedule: Q01DX001 (ip), vehicle: other 164 % of control | endpoint: mean survival time, dose: 27.0 mg/kg/injection, schedule: Q01DX001 (ip), vehicle: other 206 % of control | endpoint: mean survival time, dose: 40.0 mg/kg/injection, schedule: Q01DX001 (ip), vehicle: other 201 % of control and 261 % of control | endpoint: mean survival time, dose: 60.0 mg/kg/injection, schedule: Q01DX001 (ip), vehicle: other 263 % of control and 288 % of control | endpoint: mean survival time, dose: 90.0 mg/kg/injection, schedule: Q01DX001 (ip), vehicle: other 161 % of control and 222 % of control | endpoint: mean survival time, dose: 135.0 mg/kg/injection, schedule: Q01DX001 (ip), vehicle: other 230 % of control

CN(N=O)C(=O)Nc1ccc(NC(=O)N(C)N=O)cc1
inactive: endpoint: mean survival time, dose: 4.5 mg/kg/injection, schedule: Q01DX001 (ip), vehicle: carboxymethylcellulose (CMC) 93 % of control | endpoint: mean survival time, dose: 9.0 mg/kg/injection, schedule: Q01DX001 (ip), vehicle: carboxymethylcellulose (CMC) 98 % of control | endpoint: mean survival time, dose: 18.0 mg/kg/injection, schedule: Q01DX001 (ip), vehicle: carboxymethylcellulose (CMC) 98 % of control
